Test results taken from article doi:10.1101/2022.10.27.513961v1 (bioRxiv, 2022).
Where a SMILES comes first, the peptide text is derived from it. Bridges are numbered along the chain shown (N, C = ends).

Assays:
Format in all cases: cell-based
[1] = test system: HT144 cells; experiment: Microscopy during long-term treatment; details: HT144, treatment with cTI for 100 days
[2] = test system: HT144 cells; experiment: Real-time cell analysis, xCELLigence impedance
[3] = test system: WM164 cells; experiment: Lipidome analysis, shotgun tandem MS of lipid extracts
[4] = test system: WM164 cells; experiment: Microscopy during long-term treatment; details: WM164, after 2 µM cTI for one week
[5] = test system: WM164 cells; experiment: Co-treatment of dabrafenib with peptide, resazurin assay; details: drug-naïve WM164, drug (50 nM) or peptide (at IC50) added alone, 72 h
[6] = test system: HT144 cells; experiment: Cytotoxicity, resazurin assay; details: HT144, cTI 0.5 to 3 µM over 100 days
[7] = test system: WM164 cells; experiment: Cytotoxicity, resazurin assay
[8] = test system: WM164 cells; experiment: Real-time cell analysis, xCELLigence impedance

CC[C@H](C)[C@@H]1NC(=O)CNC(=O)[C@H](CCCNC(=N)N)NC(=O)[C@H](Cc2ccc(O)cc2)NC(=O)[C@@H]2CSSC[C@H](NC1=O)C(=O)N[C@@H](Cc1ccc(O)cc1)C(=O)N[C@@H](CCCNC(=N)N)C(=O)N[C@@H](CCCNC(=N)N)C(=O)N[C@H]1CSSC[C@H](NC(=O)[C@H](Cc3c[nH]c4ccccc34)NC(=O)[C@H](CCCCN)NC(=O)CNC(=O)[C@H](CCCNC(=N)N)NC1=O)C(=O)N[C@@H](Cc1ccccc1)C(=O)N[C@@H](CCCNC(=N)N)C(=O)N[C@@H](C(C)C)C(=O)N2 [cTI, cyclic tachyplesin I] (cyclo(CFRVCYRGICYRRCRGKW); disulfide 1-14, 5-10)
cell morphology [1]: remained unchanged | reduction in impedance signal ([2]; 5 µM, 24 h): ~50% | time to drop in the impedance to ∼0 ([2]; 10 µM): 2 to 3 h | PC 30:0, Mean nmol/M cells ([3]; WM164, 1µM cTI_15d): 0.78 nmol/M cells | PC 30:1, Mean nmol/M cells ([3]; WM164, 1µM cTI_15d): 0.42 nmol/M cells | PC 32:0, Mean nmol/M cells ([3]; WM164, 1µM cTI_15d): 0.50 nmol/M cells | PC 32:1, Mean nmol/M cells ([3]; WM164, 1µM cTI_15d): 3.15 nmol/M cells | PC 32:2, Mean nmol/M cells ([3]; WM164, 1µM cTI_15d): 0.38 nmol/M cells | PC 34:1, Mean nmol/M cells ([3]; WM164, 1µM cTI_15d): 5.61 nmol/M cells | PC 34:2, Mean nmol/M cells ([3]; WM164, 1µM cTI_15d): 2.35 nmol/M cells | PC 36:1, Mean nmol/M cells ([3]; WM164, 1µM cTI_15d): 0.86 nmol/M cells | PC 36:2, Mean nmol/M cells ([3]; WM164, 1µM cTI_15d): 3.56 nmol/M cells | PE 32:1, Mean nmol/M cells ([3]; WM164, 1µM cTI_15d): 0.21 nmol/M cells | PE 34:1, Mean nmol/M cells ([3]; WM164, 1µM cTI_15d): 0.89 nmol/M cells | PE 34:2, Mean nmol/M cells ([3]; WM164, 1µM cTI_15d): 0.71 nmol/M cells | PE 36:1, Mean nmol/M cells ([3]; WM164, 1µM cTI_15d): 0.75 nmol/M cells | PE 36:2, Mean nmol/M cells ([3]; WM164, 1µM cTI_15d): 1.48 nmol/M cells | PE 36:3, Mean nmol/M cells ([3]; WM164, 1µM cTI_15d): 0.19 nmol/M cells | PE 38:4, Mean nmol/M cells ([3]; WM164, 1µM cTI_15d): 0.27 nmol/M cells | PE 38:5, Mean nmol/M cells ([3]; WM164, 1µM cTI_15d): 0.26 nmol/M cells | PE 40:6, Mean nmol/M cells ([3]; WM164, 1µM cTI_15d): 0.16 nmol/M cells | PI 34:1, Mean nmol/M cells ([3]; WM164, 1µM cTI_15d): 0.42 nmol/M cells | PI 34:2, Mean nmol/M cells ([3]; WM164, 1µM cTI_15d): 0.29 nmol/M cells | PI 36:1, Mean nmol/M cells ([3]; WM164, 1µM cTI_15d): 1.12 nmol/M cells | PI 36:2, Mean nmol/M cells ([3]; WM164, 1µM cTI_15d): 1.12 nmol/M cells | PI 38:2, Mean nmol/M cells ([3]; WM164, 1µM cTI_15d): 0.19 nmol/M cells | PI 38:3, Mean nmol/M cells ([3]; WM164, 1µM cTI_15d): 0.34 nmol/M cells | PI 38:4, Mean nmol/M cells ([3]; WM164, 1µM cTI_15d): 0.64 nmol/M cells | PI 38:5, Mean nmol/M cells ([3]; WM164, 1µM cTI_15d): 0.22 nmol/M cells | PC 30:0, Mean nmol/M cells ([3]; WM164, 2µM cTI_60d): 0.51 nmol/M cells | PC 30:1, Mean nmol/M cells ([3]; WM164, 2µM cTI_60d): 0.27 nmol/M cells | PC 32:0, Mean nmol/M cells ([3]; WM164, 2µM cTI_60d): 0.34 nmol/M cells | PC 32:1, Mean nmol/M cells ([3]; WM164, 2µM cTI_60d): 1.93 nmol/M cells | PC 32:2, Mean nmol/M cells ([3]; WM164, 2µM cTI_60d): 0.26 nmol/M cells | PC 34:1, Mean nmol/M cells ([3]; WM164, 2µM cTI_60d): 4.19 nmol/M cells | PC 34:2, Mean nmol/M cells ([3]; WM164, 2µM cTI_60d): 1.64 nmol/M cells | PC 36:1, Mean nmol/M cells ([3]; WM164, 2µM cTI_60d): 0.82 nmol/M cells | PC 36:2, Mean nmol/M cells ([3]; WM164, 2µM cTI_60d): 2.77 nmol/M cells | PE 32:1, Mean nmol/M cells ([3]; WM164, 2µM cTI_60d): 0.16 nmol/M cells | PE 34:1, Mean nmol/M cells ([3]; WM164, 2µM cTI_60d): 0.68 nmol/M cells | PE 34:2, Mean nmol/M cells ([3]; WM164, 2µM cTI_60d): 0.71 nmol/M cells | PE 36:1, Mean nmol/M cells ([3]; WM164, 2µM cTI_60d): 0.78 nmol/M cells | PE 36:2, Mean nmol/M cells ([3]; WM164, 2µM cTI_60d): 1.83 nmol/M cells | PE 36:3, Mean nmol/M cells ([3]; WM164, 2µM cTI_60d): 0.19 nmol/M cells | PE 38:4, Mean nmol/M cells ([3]; WM164, 2µM cTI_60d): 0.28 nmol/M cells | PE 38:5, Mean nmol/M cells ([3]; WM164, 2µM cTI_60d): 0.27 nmol/M cells | PE 40:6, Mean nmol/M cells ([3]; WM164, 2µM cTI_60d): 0.17 nmol/M cells | PI 34:1, Mean nmol/M cells ([3]; WM164, 2µM cTI_60d): 0.25 nmol/M cells | PI 34:2, Mean nmol/M cells ([3]; WM164, 2µM cTI_60d): 0.17 nmol/M cells | PI 36:1, Mean nmol/M cells ([3]; WM164, 2µM cTI_60d): 0.80 nmol/M cells | PI 36:2, Mean nmol/M cells ([3]; WM164, 2µM cTI_60d): 0.73 nmol/M cells | PI 38:2, Mean nmol/M cells ([3]; WM164, 2µM cTI_60d): 0.18 nmol/M cells | PI 38:3, Mean nmol/M cells ([3]; WM164, 2µM cTI_60d): 0.26 nmol/M cells | PI 38:4, Mean nmol/M cells ([3]; WM164, 2µM cTI_60d): 0.46 nmol/M cells | PI 38:5, Mean nmol/M cells ([3]; WM164, 2µM cTI_60d): 0.12 nmol/M cells | PC 30:0, Mean nmol/M cells ([3]; WM164, 3µM cTI_100d): 0.74 nmol/M cells | PC 30:1, Mean nmol/M cells ([3]; WM164, 3µM cTI_100d): 0.44 nmol/M cells | PC 32:0, Mean nmol/M cells ([3]; WM164, 3µM cTI_100d): 0.42 nmol/M cells | PC 32:1, Mean nmol/M cells ([3]; WM164, 3µM cTI_100d): 3.17 nmol/M cells | PC 32:2, Mean nmol/M cells ([3]; WM164, 3µM cTI_100d): 0.42 nmol/M cells | PC 34:1, Mean nmol/M cells ([3]; WM164, 3µM cTI_100d): 5.27 nmol/M cells | PC 34:2, Mean nmol/M cells ([3]; WM164, 3µM cTI_100d): 2.18 nmol/M cells | PC 36:1, Mean nmol/M cells ([3]; WM164, 3µM cTI_100d): 0.90 nmol/M cells | PC 36:2, Mean nmol/M cells ([3]; WM164, 3µM cTI_100d): 2.89 nmol/M cells | PE 32:1, Mean nmol/M cells ([3]; WM164, 3µM cTI_100d): 0.26 nmol/M cells | PE 34:1, Mean nmol/M cells ([3]; WM164, 3µM cTI_100d): 1.09 nmol/M cells | PE 34:2, Mean nmol/M cells ([3]; WM164, 3µM cTI_100d): 1.08 nmol/M cells | PE 36:1, Mean nmol/M cells ([3]; WM164, 3µM cTI_100d): 1.00 nmol/M cells | PE 36:2, Mean nmol/M cells ([3]; WM164, 3µM cTI_100d): 2.05 nmol/M cells | PE 36:3, Mean nmol/M cells ([3]; WM164, 3µM cTI_100d): 0.26 nmol/M cells | PE 38:4, Mean nmol/M cells ([3]; WM164, 3µM cTI_100d): 0.33 nmol/M cells | PE 38:5, Mean nmol/M cells ([3]; WM164, 3µM cTI_100d): 0.35 nmol/M cells | PE 40:6, Mean nmol/M cells ([3]; WM164, 3µM cTI_100d): 0.19 nmol/M cells | PI 34:1, Mean nmol/M cells ([3]; WM164, 3µM cTI_100d): 0.48 nmol/M cells | PI 34:2, Mean nmol/M cells ([3]; WM164, 3µM cTI_100d): 0.30 nmol/M cells | PI 36:1, Mean nmol/M cells ([3]; WM164, 3µM cTI_100d): 1.26 nmol/M cells | PI 36:2, Mean nmol/M cells ([3]; WM164, 3µM cTI_100d): 1.19 nmol/M cells | PI 38:2, Mean nmol/M cells ([3]; WM164, 3µM cTI_100d): 0.23 nmol/M cells | PI 38:3, Mean nmol/M cells ([3]; WM164, 3µM cTI_100d): 0.35 nmol/M cells | PI 38:4, Mean nmol/M cells ([3]; WM164, 3µM cTI_100d): 0.61 nmol/M cells | PI 38:5, Mean nmol/M cells ([3]; WM164, 3µM cTI_100d): 0.22 nmol/M cells | cell morphology [4]: more elongated and less dendritic | cell death [5]: ~ 50% | development of resistance [6]: did not develop resistance | cell death ([7]; 5 x10^3 WM164 cells seeded for 24 h, 3 µM peptide, resazurin): 50% | development of resistance ([7]; WM164, cTI 0.5 to 3 µM over 100 days): did not develop resistance | reduction in impedance signal ([8]; 5 µM, 24 h): ~50% | time to drop in the impedance to ∼0 ([8]; 10 µM): 2 to 3 h | cell proliferation ([8]; 10^4 WM164 cells seeded for 24 h, 5 µM): ~50%
